How the values were obtained:
[1] = molecular target: Serine/threonine-protein kinase 3 (Homo sapiens) (UniProt Q13188); details: Compound concentration 1000.0 nM
[2] = molecular target: 3-phosphoinositide-dependent protein kinase 1 (Homo sapiens) (UniProt O15530); details: Compound concentration 1000.0 nM
[3] = molecular target: Tyrosine-protein kinase receptor UFO (Homo sapiens) (UniProt P30530); details: Compound concentration 1000.0 nM
[4] = molecular target: Non-receptor tyrosine-protein kinase TNK1 (Homo sapiens) (UniProt Q13470); details: Compound concentration 1000.0 nM
[5] = molecular target: Tyrosine-protein kinase ZAP-70 (Homo sapiens) (UniProt P43403); details: Compound concentration 1000.0 nM
[6] = molecular target: Ephrin type-B receptor 6 (Homo sapiens) (UniProt O15197); details: Compound concentration 1000.0 nM
[7] = molecular target: LIM domain kinase 2 (Homo sapiens) (UniProt P53671); details: Compound concentration 1000.0 nM
[8] = test system: Phosphatidylinositol 4,5-bisphosphate 3-kinase catalytic subunit alpha isoform (Homo sapiens), P42336 [C420R]; details: Compound concentration 1000.0 nM
[9] = molecular target: Ribosomal protein S6 kinase alpha-4 (Homo sapiens) (UniProt O75676); details: Compound concentration 1000.0 nM
[10] = molecular target: Epithelial discoidin domain-containing receptor 1 (Homo sapiens) (UniProt Q08345); details: Compound concentration 1000.0 nM
[11] = molecular target: SRSF protein kinase 1 (Homo sapiens) (UniProt Q96SB4); details: Compound concentration 1000.0 nM
[12] = molecular target: Ribosomal protein S6 kinase alpha-4 (Homo sapiens) (UniProt O75676); details: Compound concentration 1000.0 nM; remark: listed apart in the source
[13] = molecular target: Cyclin-G-associated kinase (Homo sapiens) (UniProt O14976); details: Compound concentration 1000.0 nM
[14] = test system: Epidermal growth factor receptor (Homo sapiens), P00533 [L858R]; details: Compound concentration 1000.0 nM
[15] = molecular target: Serine/threonine-protein kinase haspin (Homo sapiens) (UniProt Q8TF76); details: Compound concentration 1000.0 nM
[16] = molecular target: Insulin receptor-related protein (Homo sapiens) (UniProt P14616); details: Compound concentration 1000.0 nM
[17] = test system: Phosphatidylinositol 4,5-bisphosphate 3-kinase catalytic subunit alpha isoform (Homo sapiens), P42336 [M1043I]; details: Compound concentration 1000.0 nM
[18] = molecular target: Cyclin-dependent kinase-like 5 (Homo sapiens) (UniProt O76039); details: Compound concentration 1000.0 nM
[19] = molecular target: G protein-coupled receptor kinase 4 (Homo sapiens) (UniProt P32298); details: Compound concentration 1000.0 nM
[20] = molecular target: Myosin light chain kinase, smooth muscle (Homo sapiens) (UniProt Q15746); details: Compound concentration 1000.0 nM
[21] = molecular target: 5-hydroxytryptamine receptor 5A (Homo sapiens) (UniProt P47898); details: Compound concentration 10.0 uM
[22] = molecular target: Histamine H3 receptor (Homo sapiens) (UniProt Q9Y5N1); details: Compound concentration 10.0 uM
[23] = molecular target: Ephrin type-B receptor 2 (Homo sapiens) (UniProt P29323); details: Compound concentration 1000.0 nM
[24] = molecular target: Receptor-interacting serine/threonine-protein kinase 4 (Homo sapiens) (UniProt P57078); details: Compound concentration 1000.0 nM
[25] = molecular target: RAF proto-oncogene serine/threonine-protein kinase (Homo sapiens) (UniProt P04049); details: Compound concentration 1000.0 nM
[26] = molecular target: Serine/threonine-protein kinase TAO2 (Homo sapiens) (UniProt Q9UL54); details: Compound concentration 1000.0 nM
[27] = molecular target: AP2-associated protein kinase 1 (Homo sapiens) (UniProt Q2M2I8); details: Compound concentration 1000.0 nM
[28] = molecular target: Serine/threonine-protein kinase 25 (Homo sapiens) (UniProt O00506); details: Compound concentration 1000.0 nM
[29] = molecular target: Macrophage colony-stimulating factor 1 receptor (Homo sapiens) (UniProt P07333); details: Compound concentration 1000.0 nM
[30] = molecular target: Serine/threonine-protein kinase DCLK2 (Homo sapiens) (UniProt Q8N568); details: Compound concentration 1000.0 nM
[31] = molecular target: Death-associated protein kinase 1 (Homo sapiens) (UniProt P53355); details: Compound concentration 1000.0 nM
[32] = molecular target: Mitogen-activated protein kinase 4 (Homo sapiens) (UniProt P31152); details: Compound concentration 1000.0 nM
[33] = molecular target: Muscle, skeletal receptor tyrosine-protein kinase (Homo sapiens) (UniProt O15146); details: Compound concentration 1000.0 nM
[34] = test system: Tyrosine-protein kinase ABL1 (Homo sapiens), P00519 [H396P]; details: Compound concentration 1000.0 nM
[35] = molecular target: Tyrosine-protein kinase Srms (Homo sapiens) (UniProt Q9H3Y6); details: Compound concentration 1000.0 nM
[36] = molecular target: Ephrin type-A receptor 7 (Homo sapiens) (UniProt Q15375); details: Compound concentration 1000.0 nM
[37] = molecular target: Myosin-IIIb (Homo sapiens) (UniProt Q8WXR4); details: Compound concentration 1000.0 nM
[38] = molecular target: SRSF protein kinase 3 (Homo sapiens) (UniProt Q9UPE1); details: Compound concentration 1000.0 nM
[39] = molecular target: Rho-associated protein kinase 1 (Homo sapiens) (UniProt Q13464); details: Compound concentration 1000.0 nM
[40] = molecular target: Mitogen-activated protein kinase 6 (Homo sapiens) (UniProt Q16659); details: Compound concentration 1000.0 nM
[41] = molecular target: Myotonin-protein kinase (Homo sapiens) (UniProt Q09013); details: Compound concentration 1000.0 nM
[42] = molecular target: Maternal embryonic leucine zipper kinase (Homo sapiens) (UniProt Q14680); details: Compound concentration 1000.0 nM
[43] = molecular target: Activin receptor type-1 (Homo sapiens) (UniProt Q04771); details: Compound concentration 1000.0 nM
[44] = test system: Phosphatidylinositol 4,5-bisphosphate 3-kinase catalytic subunit alpha isoform (Homo sapiens), P42336 [H1047L]; details: Compound concentration 1000.0 nM
[45] = molecular target: Mitogen-activated protein kinase kinase kinase 9 (Homo sapiens) (UniProt P80192); details: Compound concentration 1000.0 nM
[46] = molecular target: Transient receptor potential cation channel subfamily M member 6 (Homo sapiens) (UniProt Q9BX84); details: Compound concentration 1000.0 nM

Chain of Ribosomal protein S6 kinase alpha-4 (Homo sapiens) (O75676 whole entry, looked up, the tested form may be a part): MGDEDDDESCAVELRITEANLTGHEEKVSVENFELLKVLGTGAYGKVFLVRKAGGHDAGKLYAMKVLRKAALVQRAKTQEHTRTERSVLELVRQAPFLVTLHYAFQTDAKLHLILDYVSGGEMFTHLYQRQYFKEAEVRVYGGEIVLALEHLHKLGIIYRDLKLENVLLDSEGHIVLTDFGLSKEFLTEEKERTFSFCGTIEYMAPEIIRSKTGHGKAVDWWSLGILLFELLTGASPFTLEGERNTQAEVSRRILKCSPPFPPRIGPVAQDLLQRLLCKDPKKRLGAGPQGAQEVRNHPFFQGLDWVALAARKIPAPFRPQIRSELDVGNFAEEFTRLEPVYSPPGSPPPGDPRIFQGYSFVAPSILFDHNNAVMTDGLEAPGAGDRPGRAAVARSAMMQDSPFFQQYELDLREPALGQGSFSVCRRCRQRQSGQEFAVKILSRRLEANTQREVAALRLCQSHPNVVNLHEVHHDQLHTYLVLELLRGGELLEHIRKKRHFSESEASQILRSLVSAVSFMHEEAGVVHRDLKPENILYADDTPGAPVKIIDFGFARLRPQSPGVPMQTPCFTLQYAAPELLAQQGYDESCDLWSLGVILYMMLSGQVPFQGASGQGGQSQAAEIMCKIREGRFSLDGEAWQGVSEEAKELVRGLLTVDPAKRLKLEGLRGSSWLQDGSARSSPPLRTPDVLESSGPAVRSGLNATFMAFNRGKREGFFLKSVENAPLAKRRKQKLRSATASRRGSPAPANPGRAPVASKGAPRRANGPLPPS
Chain of RAF proto-oncogene serine/threonine-protein kinase (Homo sapiens) (P04049 whole entry): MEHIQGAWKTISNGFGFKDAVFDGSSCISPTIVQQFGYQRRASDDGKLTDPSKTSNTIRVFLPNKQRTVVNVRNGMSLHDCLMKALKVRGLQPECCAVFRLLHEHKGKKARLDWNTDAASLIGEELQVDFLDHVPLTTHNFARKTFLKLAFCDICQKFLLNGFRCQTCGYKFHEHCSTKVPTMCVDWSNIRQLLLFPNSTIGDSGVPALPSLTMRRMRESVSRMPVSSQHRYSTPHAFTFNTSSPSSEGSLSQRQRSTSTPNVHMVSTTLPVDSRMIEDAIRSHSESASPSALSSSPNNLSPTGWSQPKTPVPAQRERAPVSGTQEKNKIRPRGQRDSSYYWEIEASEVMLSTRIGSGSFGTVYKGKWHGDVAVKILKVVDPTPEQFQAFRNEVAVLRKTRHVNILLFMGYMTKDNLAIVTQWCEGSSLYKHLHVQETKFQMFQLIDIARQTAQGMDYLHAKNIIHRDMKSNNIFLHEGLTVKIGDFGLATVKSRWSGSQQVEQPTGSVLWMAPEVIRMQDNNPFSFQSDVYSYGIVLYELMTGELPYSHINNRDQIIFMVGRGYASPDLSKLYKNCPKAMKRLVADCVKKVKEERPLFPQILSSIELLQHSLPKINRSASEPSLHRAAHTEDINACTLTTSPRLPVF
Chain of Histamine H3 receptor (Homo sapiens) (Q9Y5N1 whole entry): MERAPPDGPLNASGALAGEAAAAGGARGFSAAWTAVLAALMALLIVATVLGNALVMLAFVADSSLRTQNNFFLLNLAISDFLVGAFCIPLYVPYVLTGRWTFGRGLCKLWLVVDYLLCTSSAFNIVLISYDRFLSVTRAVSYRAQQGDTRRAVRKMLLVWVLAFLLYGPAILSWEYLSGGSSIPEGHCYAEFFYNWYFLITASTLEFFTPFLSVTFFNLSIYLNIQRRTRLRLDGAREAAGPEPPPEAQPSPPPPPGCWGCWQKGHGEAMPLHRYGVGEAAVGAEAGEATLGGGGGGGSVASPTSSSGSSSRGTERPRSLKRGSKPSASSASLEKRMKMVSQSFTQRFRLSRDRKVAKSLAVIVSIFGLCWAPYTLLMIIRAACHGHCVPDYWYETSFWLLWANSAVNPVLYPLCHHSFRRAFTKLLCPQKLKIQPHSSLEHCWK
Chain of Ephrin type-B receptor 2 (Homo sapiens) (P29323 whole entry): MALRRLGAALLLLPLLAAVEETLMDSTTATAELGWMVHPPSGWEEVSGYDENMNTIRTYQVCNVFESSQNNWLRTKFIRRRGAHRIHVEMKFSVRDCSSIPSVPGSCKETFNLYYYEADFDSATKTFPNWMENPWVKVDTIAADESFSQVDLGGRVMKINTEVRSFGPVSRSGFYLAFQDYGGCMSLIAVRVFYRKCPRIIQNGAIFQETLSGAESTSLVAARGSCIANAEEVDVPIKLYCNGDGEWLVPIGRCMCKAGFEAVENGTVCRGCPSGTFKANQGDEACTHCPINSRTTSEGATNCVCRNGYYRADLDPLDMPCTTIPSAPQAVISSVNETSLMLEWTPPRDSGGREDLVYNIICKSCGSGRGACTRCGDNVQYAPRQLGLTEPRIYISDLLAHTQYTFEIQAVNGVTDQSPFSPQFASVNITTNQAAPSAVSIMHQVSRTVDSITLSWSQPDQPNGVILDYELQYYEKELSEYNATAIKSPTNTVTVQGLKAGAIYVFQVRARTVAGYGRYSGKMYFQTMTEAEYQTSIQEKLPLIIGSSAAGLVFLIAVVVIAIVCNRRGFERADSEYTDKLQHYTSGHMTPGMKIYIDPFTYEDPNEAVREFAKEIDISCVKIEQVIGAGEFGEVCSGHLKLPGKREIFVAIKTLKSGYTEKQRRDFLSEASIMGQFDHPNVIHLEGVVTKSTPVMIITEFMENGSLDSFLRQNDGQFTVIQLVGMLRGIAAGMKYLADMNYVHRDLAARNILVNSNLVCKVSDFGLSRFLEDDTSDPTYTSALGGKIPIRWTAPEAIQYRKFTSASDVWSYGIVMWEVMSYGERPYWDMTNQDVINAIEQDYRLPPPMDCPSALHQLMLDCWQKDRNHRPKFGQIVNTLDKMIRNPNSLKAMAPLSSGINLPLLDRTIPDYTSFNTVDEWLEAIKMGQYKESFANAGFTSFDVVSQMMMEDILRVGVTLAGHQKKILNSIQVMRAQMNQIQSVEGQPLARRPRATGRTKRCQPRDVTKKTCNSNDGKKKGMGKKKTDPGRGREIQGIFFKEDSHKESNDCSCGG
Chain of Activin receptor type-1 (Homo sapiens) (Q04771 whole entry, canonical isoform): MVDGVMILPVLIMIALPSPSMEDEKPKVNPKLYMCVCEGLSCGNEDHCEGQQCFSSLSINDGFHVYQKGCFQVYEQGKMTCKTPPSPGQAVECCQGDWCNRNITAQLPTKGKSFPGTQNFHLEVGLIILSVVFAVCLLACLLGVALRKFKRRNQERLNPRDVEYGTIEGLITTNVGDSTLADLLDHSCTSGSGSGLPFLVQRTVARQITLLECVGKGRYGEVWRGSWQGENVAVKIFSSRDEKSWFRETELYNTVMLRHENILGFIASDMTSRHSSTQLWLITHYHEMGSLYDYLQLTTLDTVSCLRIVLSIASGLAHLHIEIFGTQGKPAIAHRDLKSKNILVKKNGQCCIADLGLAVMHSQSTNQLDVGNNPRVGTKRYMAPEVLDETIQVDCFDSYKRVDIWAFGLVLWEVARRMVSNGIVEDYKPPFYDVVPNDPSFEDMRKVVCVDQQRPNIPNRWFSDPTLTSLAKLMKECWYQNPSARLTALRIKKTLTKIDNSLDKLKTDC
Chain of Cyclin-dependent kinase-like 5 (Homo sapiens) (O76039 whole entry): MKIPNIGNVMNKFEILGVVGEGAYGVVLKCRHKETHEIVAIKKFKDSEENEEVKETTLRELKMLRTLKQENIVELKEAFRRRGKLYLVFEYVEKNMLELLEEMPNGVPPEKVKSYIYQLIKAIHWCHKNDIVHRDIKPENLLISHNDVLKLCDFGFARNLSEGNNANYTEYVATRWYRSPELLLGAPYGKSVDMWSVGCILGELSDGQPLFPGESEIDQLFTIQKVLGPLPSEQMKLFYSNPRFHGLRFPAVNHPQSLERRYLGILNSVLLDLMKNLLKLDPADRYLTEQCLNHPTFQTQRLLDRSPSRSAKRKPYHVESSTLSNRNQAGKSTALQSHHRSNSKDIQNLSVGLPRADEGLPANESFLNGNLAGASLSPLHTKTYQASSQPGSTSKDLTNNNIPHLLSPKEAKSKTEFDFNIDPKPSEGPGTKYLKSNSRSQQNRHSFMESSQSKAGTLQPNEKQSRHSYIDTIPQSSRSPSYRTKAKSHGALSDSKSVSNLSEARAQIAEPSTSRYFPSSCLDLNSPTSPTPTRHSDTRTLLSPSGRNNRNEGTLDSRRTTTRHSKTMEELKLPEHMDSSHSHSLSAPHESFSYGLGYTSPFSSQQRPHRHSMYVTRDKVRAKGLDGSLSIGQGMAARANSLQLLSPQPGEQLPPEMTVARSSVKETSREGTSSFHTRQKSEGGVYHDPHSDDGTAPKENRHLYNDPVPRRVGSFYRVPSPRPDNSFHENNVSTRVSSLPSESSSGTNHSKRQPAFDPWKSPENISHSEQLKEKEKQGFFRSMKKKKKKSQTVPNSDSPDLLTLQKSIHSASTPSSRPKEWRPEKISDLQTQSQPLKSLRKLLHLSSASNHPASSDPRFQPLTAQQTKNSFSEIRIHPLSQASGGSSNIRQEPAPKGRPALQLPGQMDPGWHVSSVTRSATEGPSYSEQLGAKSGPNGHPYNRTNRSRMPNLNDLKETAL
Chain of Tyrosine-protein kinase Srms (Homo sapiens) (Q9H3Y6 whole entry): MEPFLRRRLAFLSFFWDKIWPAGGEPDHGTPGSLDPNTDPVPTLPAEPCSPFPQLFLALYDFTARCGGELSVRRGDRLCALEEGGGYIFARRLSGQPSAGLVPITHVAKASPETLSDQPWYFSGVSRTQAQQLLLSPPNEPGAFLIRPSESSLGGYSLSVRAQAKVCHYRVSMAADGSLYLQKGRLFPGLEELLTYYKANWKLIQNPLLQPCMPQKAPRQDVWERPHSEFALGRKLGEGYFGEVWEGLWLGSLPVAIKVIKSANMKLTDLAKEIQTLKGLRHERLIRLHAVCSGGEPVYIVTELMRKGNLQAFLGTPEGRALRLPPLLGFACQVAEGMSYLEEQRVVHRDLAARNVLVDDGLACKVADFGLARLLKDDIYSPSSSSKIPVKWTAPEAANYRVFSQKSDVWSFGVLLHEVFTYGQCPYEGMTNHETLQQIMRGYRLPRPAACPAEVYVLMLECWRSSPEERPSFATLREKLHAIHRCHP

CCCCN(CCCC)C(=O)CN1C[C@@H](c2cc(OC)c3c(c2)OCO3)[C@H](C(=O)O)[C@H]1CC(C)(C)CCC [A-545]
inactive: residual activity [1] 100% | residual activity [2] 77.3% | residual activity [3] 87.2% | residual activity [4] 100% | residual activity [5] 98.5% | residual activity [6] 87.7% | residual activity [7] 86.8% | residual activity [8] 99.4% | residual activity [9] 100% | residual activity [10] 100% | residual activity [11] 62.5% | residual activity [12] 97.2% | residual activity [13] 95.8% | residual activity [14] 100% | residual activity [15] 100% | residual activity [16] 93.2% | residual activity [17] 100% | residual activity [18] 100% | residual activity [19] 95.8% | residual activity [20] 84.4% | inhibition [21] 43.5% | inhibition [22] 17% | residual activity [23] 73% | residual activity [24] 77.2% | residual activity [25] 93.3% | residual activity [26] 95.4% | residual activity [27] 100% | residual activity [28] 88.1% | residual activity [29] 100% | residual activity [30] 87.4% | residual activity [31] 82.8% | residual activity [32] 100% | residual activity [33] 78.7% | residual activity [34] 89.4% | residual activity [35] 90.6% | residual activity [36] 100% | residual activity [37] 91% | residual activity [38] 100% | residual activity [39] 100% | residual activity [40] 96.5% | residual activity [41] 100% | residual activity [42] 100% | residual activity [43] 100% | residual activity [44] 62.4% | residual activity [45] 98.8% | residual activity [46] 90.4%

CCCCN(CCCC)C(=O)CN1C[C@H](c2cc(OC)c3c(c2)OCO3)[C@@H](C(=O)O)[C@@H]1CC(C)(C)CCC [ABT-546]
inactive: residual activity [1] 96.1% | residual activity [2] 100% | residual activity [3] 100% | residual activity [4] 100% | residual activity [5] 70.1% | residual activity [6] 100% | residual activity [7] 100% | residual activity [8] 100% | residual activity [9] 100% | residual activity [10] 95.5% | residual activity [11] 100% | residual activity [12] 75% | residual activity [13] 100% | residual activity [14] 99.7% | residual activity [15] 75.8% | residual activity [16] 100% | residual activity [17] 83.7% | residual activity [18] 71.4% | residual activity [19] 100% | residual activity [20] 100% | inhibition [21] -5.07% | inhibition [22] -3.57% | residual activity [23] 100% | residual activity [24] 85.5% | residual activity [25] 100% | residual activity [26] 71.1% | residual activity [27] 100% | residual activity [28] 100% | residual activity [30] 100% | residual activity [31] 100% | residual activity [32] 100% | residual activity [33] 100% | residual activity [34] 96.3% | residual activity [35] 69.6% | residual activity [36] 100% | residual activity [37] 88.6% | residual activity [38] 100% | residual activity [39] 90.4% | residual activity [40] 100% | residual activity [41] 100% | residual activity [42] 100% | residual activity [43] 100% | residual activity [44] 100% | residual activity [45] 100% | residual activity [46] 91.6%
active: residual activity [29] 43%

From ChEMBL document CHEMBL4507258 (2021)
